One assay addresses GST-MCL-1 (Homo sapiens, UniProt Q07820). Nature of the assay: TR-FRET MCL-1 binding assay (competition with probe F-Bak). The essentials: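 Test compounds, 11 three-fold dilutions from 25 μM final, incubated 2 hours at room temperature with GST-MCL-1, F-Bak probe and Tb-anti-GST antibody. TR-FRET read at 340/35 nm excitation with 520/525 and 495/510 nm emission. Run without human serum and with 10% HS.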

For assay [1], the system named is AMO-1 human multiple myeloma tumor cell line. Nature of the assay: AMO-1 cell viability assay (CellTiter-Glo, 24 hours). It counts as cell-based. A general note: Cellular ATP, detected with luciferase, serves as a proxy for viable cell number.
Assay [2] has as its system NCI-H929 human multiple myeloma tumor cell line. In words: NCI-H929 cell viability assay (CellTiter-Glo, 24 hours). It counts as cell-based.
Setting [3] is: MCL-1 Binding Ki (nM, 10% HS), in the presence of 10% HS (human serum).
Setting [4] is: without HS, read-out: MCL-1 Binding Ki.
Where [5] appears, read: Homo sapiens, AMO1, 24 h, read-out: AMO-1 Viability IC50 (μM, 10% FBS), 10% FBS, 24 hours of compound treatment.
Setting [6] is: Homo sapiens, NCI-H929, 24 h, read-out: H929 Viability IC50 (μM, 10% FBS), 10% FBS, 24 hours of compound treatment.

Like-named read-outs stand apart in the source and are kept apart here.

GST-MCL-1, sequence (Q07820 whole entry): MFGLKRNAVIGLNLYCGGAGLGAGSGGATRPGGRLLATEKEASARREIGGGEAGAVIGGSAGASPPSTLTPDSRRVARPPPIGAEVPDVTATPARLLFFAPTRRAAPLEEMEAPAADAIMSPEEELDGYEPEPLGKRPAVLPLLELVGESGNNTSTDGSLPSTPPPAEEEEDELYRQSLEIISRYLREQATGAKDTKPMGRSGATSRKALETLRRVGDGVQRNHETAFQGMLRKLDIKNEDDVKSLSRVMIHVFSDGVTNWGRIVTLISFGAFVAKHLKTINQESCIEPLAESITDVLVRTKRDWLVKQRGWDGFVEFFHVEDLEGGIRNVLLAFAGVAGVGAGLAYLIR

As to `COCCOCCOCCOCCOCC1(F)CC=C(c2nccc(COc3ccc4cc3C[C@H](C(=O)O)Oc3ncnc5sc(-c6ccc(F)cc6)c(c35)-c3c(C)c(Cl)c(c(Cl)c3C)O[C@H](CN3CCN(C)CC3)CO4)n2)CC1` (single isomer, unassigned) [Example 114, (7R,16R)-19,23-dichloro-10-({2-[(4S*)-4-fluoro-4-(2,5,8,11,14-pentaoxapentadecan-1-yl)cyclohex-1-en-1-yl]pyrimidin-4-yl}methoxy)-1-(4-fluorophenyl)-20,22-dimethyl-16-[(4-methylpiperazin-1-yl)methyl]-7,8,15,16-tetrahydro-18,21-etheno-13,9-(metheno)-6,14,17-trioxa-2-thia-3,5-diazacyclononadeca[1,2,3-cd]indene-7-carboxylic Acid], the Ki at GST-MCL-1 (setting [3]) was found to be 0.15 nM; on GST-MCL-1 (setting [4]), 0.018 nM. The IC50 in assay [1] (read-out: AMO-1 Viability IC50 (μM, 10% FBS), 10% FBS, 24 hours of compound treatment) came out at 0.000197 µM; in assay [2] (read-out: H929 Viability IC50 (μM, 10% FBS), 10% FBS, 24 hours of compound treatment) it was 0.000331 µM.
Regarding `COCCOCCOCCOCC1(F)CC=C(c2nccc(COc3ccc4cc3C[C@H](C(=O)O)Oc3ncnc5sc(C6=CCCC6)c(c35)-c3c(C)c(Cl)c(c(Cl)c3C)O[C@H](CN3CCN(C)CC3)CO4)n2)CC1` (single isomer, unassigned) [Example 125, (7R,16R)-19,23-dichloro-1-(cyclopent-1-en-1-yl)-10-({2-[(4S*)-4-fluoro-4-(2,5,8,11-tetraoxadodecan-1-yl)cyclohex-1-en-1-yl]pyrimidin-4-yl}methoxy)-20,22-dimethyl-16-[(4-methylpiperazin-1-yl)methyl]-7,8,15,16-tetrahydro-18,21-etheno-13,9-(metheno)-6,14,17-trioxa-2-thia-3,5-diazacyclononadeca[1,2,3-cd]indene-7-carboxylic Acid], the figures for the Ki at GST-MCL-1 (setting [3]) and at GST-MCL-1 (setting [4]) were 0.455 nM and 0.037 nM, respectively. Moreover, the IC50 worked out at 0.000288 µM in assay [1] (setting [5]) and 0.00111 µM in assay [2] (setting [6]).
Take `Cc1c2ccc(c1Cl)O[C@H](CN1CCN(C)CC1)COc1ccc(OCc3ccnc(-c4ccccc4C(=O)O)n3)c(c1)C[C@H](C(=O)O)Oc1ncnc3sc(-c4ccc(F)cc4)c-2c13` (atropisomer, axis not shown) [Example 19, (7R,16R)-10-{[2-(2-carboxyphenyl)pyrimidin-4-yl]methoxy}-19-chloro-1-(4-fluorophenyl)-20-methyl-16-[(4-methylpiperazin-1-yl)methyl]-7,8,15,16-tetrahydro-18,21-etheno-13,9-(metheno)-6,14,17-trioxa-2-thia-3,5-diazacyclononadeca[1,2,3-cd]indene-7-carboxylic Acid]: the Ki worked out at 0.069 nM on GST-MCL-1 (setting [3]) and 0.006 nM at GST-MCL-1 (setting [4]). Moreover, the figures for the IC50 in assay [1] (setting [5]) and in assay [2] (setting [6]) were 0.0963 µM and 0.365 µM, respectively.
As for `COCCOCCOCCOCCOCC1(c2nccc(COc3ccc4cc3C[C@H](C(=O)O)Oc3ncnc5sc(-c6ccc(F)cc6)c(c35)-c3c(C)c(Cl)c(c(Cl)c3C)O[C@H](CN3CCN(C)CC3)CO4)n2)CCC1` [Example 58, (7R,16R)-19,23-dichloro-1-(4-fluorophenyl)-20,22-dimethyl-16-[(4-methylpiperazin-1-yl)methyl]-10-({2-[1-(2,5,8,11,14-pentaoxapentadecan-1-yl)cyclobutyl]pyrimidin-4-yl}methoxy)-7,8,15,16-tetrahydro-18,21-etheno-13,9-(metheno)-6,14,17-trioxa-2-thia-3,5-diazacyclononadeca[1,2,3-cd]indene-7-carboxylic Acid], the inhibitory constant (Ki) at GST-MCL-1 (setting [3]) was 0.161 nM; on GST-MCL-1 (setting [4]) it was 0.05 nM. The IC50 worked out at 0.000378 µM in assay [1] (setting [5]) and 0.00056 µM in assay [2] (setting [6]).
For `Cc1c(Cl)c2c(Cl)c(C)c1-c1c(-c3ccc(F)cc3)sc3ncnc(c13)O[C@@H](C(=O)O)Cc1cc(ccc1OCc1ccnc(N3CCC(F)(COCCOCC4COCCO4)CC3)n1)OC[C@@H](CN1CCN(C)CC1)O2` (stereo partly drawn) [Example 91, (7R,16R)-19,23-dichloro-10-({2-[4-({2-[(1,4-dioxan-2-yl)methoxy]ethoxy}methyl)-4-fluoropiperidin-1-yl]pyrimidin-4-yl}methoxy)-1-(4-fluorophenyl)-20,22-dimethyl-16-[(4-methylpiperazin-1-yl)methyl]-7,8,15,16-tetrahydro-18,21-etheno-13,9-(metheno)-6,14,17-trioxa-2-thia-3,5-diazacyclononadeca[1,2,3-cd]indene-7-carboxylic Acid], in that order: 2.1 nM, 0.231 nM, 0.00072 µM and 0.00192 µM.
As to `Cc1c(Cl)c2c(Cl)c(C)c1-c1c(-c3ccc(F)cc3)sc3ncnc(c13)O[C@@H](C(=O)O)Cc1cc(ccc1OCc1ccnc(-c3ccc(CN4CCOCC4)cc3)n1)OC[C@@H](CN1CCN(C)CC1)O2` [Example 148, (7R,16R)-19,23-dichloro-1-(4-fluorophenyl)-20,22-dimethyl-16-[(4-methylpiperazin-1-yl)methyl]-10-[(2-{4-[(morpholin-4-yl)methyl]phenyl}pyrimidin-4-yl)methoxy]-7,8,15,16-tetrahydro-18,21-etheno-13,9-(metheno)-6,14,17-trioxa-2-thia-3,5-diazacyclononadeca[1,2,3-cd]indene-7-carboxylic Acid], the Ki was determined as 0.346 nM on GST-MCL-1 (setting [3]) and 0.034 nM on GST-MCL-1 (setting [4]). In addition, the IC50 in assay [1] (setting [5]) worked out at 0.00018 µM; in assay [2] (setting [6]), 0.000736 µM.
In the case of `COCCOCCOCC1(F)CC=C(c2nccc(COc3ccc4cc3C[C@H](C(=O)O)Oc3ncnc5sc(-c6ccc(F)cc6)c(c35)-c3c(C)c(Cl)c(c(Cl)c3C)O[C@H](CN3CCN(C)CC3)CO4)n2)CC1` (single isomer, unassigned) [Example 86, (7R,16R)-19,23-dichloro-10-({2-[(4S*)-4-fluoro-4-{[2-(2-methoxyethoxy)ethoxy]methyl}cyclohex-1-en-1-yl]pyrimidin-4-yl}methoxy)-1-(4-fluorophenyl)-20,22-dimethyl-16-[(4-methylpiperazin-1-yl)methyl]-7,8,15,16-tetrahydro-18,21-etheno-13,9-(metheno)-6,14,17-trioxa-2-thia-3,5-diazacyclononadeca[1,2,3-cd]indene-7-carboxylic Acid], the Ki stood at 0.102 nM on GST-MCL-1 (setting [3]) and 0.008 nM on GST-MCL-1 (setting [4]). The IC50 in assay [1] (setting [5]) was 0.000105 µM; in assay [2] (setting [6]) it was 0.000258 µM.
Take `Cc1c(Cl)c2c(Cl)c(C)c1-c1c(-c3ccc(F)cc3)sc3ncnc(c13)O[C@@H](C(=O)O)Cc1cc(ccc1OCc1ccnc(-c3ccc(O[C@H]4CO[C@H]5[C@@H]4OC[C@H]5O)cc3)n1)OC[C@@H](CN1CCN(C)CC1)O2` [Example 161, (7R,16R)-19,23-dichloro-1-(4-fluorophenyl)-10-{[2-(4-{[(3S,3aR,6R,6aR)-6-hydroxyhexahydrofuro[3,2-b]furan-3-yl]oxy}phenyl)pyrimidin-4-yl]methoxy}-20,22-dimethyl-16-[(4-methylpiperazin-1-yl)methyl]-7,8,15,16-tetrahydro-18,21-etheno-13,9-(metheno)-6,14,17-trioxa-2-thia-3,5-diazacyclononadeca[1,2,3-cd]indene-7-carboxylic Acid]: the Ki at GST-MCL-1 (setting [3]) amounted to 0.141 nM; at GST-MCL-1 (setting [4]), 0.002 nM. Further, the IC50 in assay [1] (setting [5]) turned out to be 0.000262 µM; in assay [2] (setting [6]), 0.000502 µM.

Usually Ki stands for the equilibrium dissociation constant of an inhibitor or competing ligand from its target. Broadly, the IC50 is the concentration that inhibits the measured activity by half.

(Values after patent US20250313572A1, “MACROCYCLIC MCL-1 INHIBITORS AND METHODS OF USE” (AbbVie Inc., priority 2017, published 2025).)
